This is an account of results in article PMC5972072 (Bioorganic chemistry, 2018).

Entries after “also recorded” stand apart in the source; their conditions may differ. A value given as a limit tells only on which side of the number the result lay.

Experiment [1] has as its target T1, haspin kinase (Homo sapiens, UniProt Q8TF76).
T1 sequence (Q8TF76 1-798): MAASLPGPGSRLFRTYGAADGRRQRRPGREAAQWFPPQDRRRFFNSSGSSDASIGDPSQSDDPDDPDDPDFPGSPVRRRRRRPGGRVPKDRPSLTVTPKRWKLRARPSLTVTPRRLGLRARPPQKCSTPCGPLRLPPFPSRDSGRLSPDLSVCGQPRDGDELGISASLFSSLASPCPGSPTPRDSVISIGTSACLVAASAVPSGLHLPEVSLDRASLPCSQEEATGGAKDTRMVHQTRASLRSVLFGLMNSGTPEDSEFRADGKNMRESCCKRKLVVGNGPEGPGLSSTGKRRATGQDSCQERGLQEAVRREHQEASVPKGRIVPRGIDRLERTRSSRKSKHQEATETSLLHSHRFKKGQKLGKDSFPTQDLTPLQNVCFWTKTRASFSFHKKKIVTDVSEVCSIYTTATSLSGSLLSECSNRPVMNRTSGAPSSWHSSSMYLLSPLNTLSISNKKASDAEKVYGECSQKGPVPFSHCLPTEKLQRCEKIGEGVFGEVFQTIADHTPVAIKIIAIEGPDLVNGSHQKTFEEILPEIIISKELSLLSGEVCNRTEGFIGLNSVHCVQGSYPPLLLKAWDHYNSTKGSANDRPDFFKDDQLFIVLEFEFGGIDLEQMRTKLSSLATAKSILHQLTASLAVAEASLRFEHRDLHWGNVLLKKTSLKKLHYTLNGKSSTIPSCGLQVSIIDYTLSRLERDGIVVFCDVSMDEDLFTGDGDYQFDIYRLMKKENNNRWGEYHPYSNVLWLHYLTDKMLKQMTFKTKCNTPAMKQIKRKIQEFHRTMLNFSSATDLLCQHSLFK
The experiment is described as follows: Haspin kinase activity, ADP-Glo kinase assay, single concentration. In kind it is biochemical. To be noted: for haspin inhibition (in words): 100 nM compound, 3 h, Figure 2; for inhibition at 0.1 µM: read-out: inhibition of haspin's enzymatic activity. (In ADP-Glo the light output rises with the ADP produced.)

Experiment [2] concerns HCT116 cells. The experiment is described as follows: Antiproliferative activity, CellTiter-Blue viability. Particulars: for antiproliferative activity (in words): HCT116, 10 μM, 72 h; for IC50: Homo sapiens, HCT-116, 72 h, read-out: IC50 against HCT116. In kind it is cell-based.
The subject of experiment [3] is HeLa cells. Described as above. In kind it is cell-based. To be noted: 72 h; for antiproliferative activity (in words): 10 μM; for IC50: Homo sapiens, read-out: IC50 against HeLa.
The subject of experiment [4] is A375 cells. The description is as above. In kind it is cell-based. To be noted: A375, 10 μM, 72 h.
The target in experiment [5] is T1, haspin kinase. The experiment can be described thus: Haspin dose-response.
Experiment [6] concerns HCT116 and HeLa cells. To be noted: HCT116 and HeLa cells ref 13; cited from earlier work.
For experiment [7], the system named is HCT116 cells. The experiment is described as follows: Cell cycle analysis, propidium iodide staining with flow cytometry. In kind it is cell-based.
The subject of experiment [8] is caspase 3/7 in HCT116 cells. The experiment is described as follows: Caspase 3/7 fluorescence assay. Particulars: HCT116, after 72 hours, normalized to DMSO.

For `Nc1ncc(-c2nc3ccc4[nH]ncc4c3c3c2CCCC3)cn1` [Compound 18, 5-(8,9,10,11-Tetrahydro-3H-pyrazolo[4,3-a]phenanthridin-7-yl)pyrimidin-2-amine], the “haspin inhibition (in words)” value in experiment [1] is reported as “slightly less active against haspin”.
Turning to `Oc1ccc(-c2nc3c(ccc4cn[nH]c43)c3c2CCCC3)cc1` [Compound 19, 4-(6,7,8,9-Tetrahydro-3H-pyrazolo[4,3-c]phenanthridin-5-yl)phenol], the “haspin inhibition (in words)” value in experiment [1] is recorded as “not as active against haspin than compound 1; also recorded: poor haspin inhibitors”. The “antiproliferative activity (in words)” value in experiment [2], in experiment [3] and in experiment [4] was “performed poorly” throughout.
As to `Oc1cc(F)c(-c2nc3ccc4[nH]ncc4c3c3c2CCCC3)cc1F` [Compound 10, 2,5-Difluoro-4-(8,9,10,11-tetrahydro-3H-pyrazolo[4,3-a]phenanthridin-7-yl)phenol], the “haspin inhibition (in words)” value in experiment [1] is recorded as “decreased potency”.
With `N#Cc1n[nH]c2ccc3nc(-c4ccc(O)cc4)c4c(c3c12)CCCC4` [Compound 7, 7-(4-Hydroxyphenyl)-8,9,10,11-tetrahydro-3H-pyrazolo[4,3-a]phenanthridine-1-carbonitrile], the “haspin inhibition (in words)” value in experiment [1] was “no inhibitory activity; also recorded: did not inhibit haspin; also recorded: poor haspin inhibitors”. Further, the “antiproliferative activity (in words)” value in experiment [2], in experiment [3] and in experiment [4] was “performed poorly” each time.
What is called inhibition is how much of the control response was suppressed. A word on the IC50: it is the concentration that inhibits the measured activity by half. With `Nc1ccc(-c2nc3ccc4[nH]ncc4c3c3c2CCCC3)cc1` [HSD929, 4-(8,9,10,11-Tetrahydro-3H-pyrazolo[4,3-a]phenanthridin-7-yl)aniline], the entries for the “haspin inhibition (in words)” value in experiment [1] and in experiment [1] (listed as 16) were “potent inhibitors of haspin” and “did not affect haspin inhibition”, respectively. The inhibition at 0.1 µM in experiment [1] was above 90%. The “antiproliferative activity (in words)” value in experiment [2] and in experiment [3] was “potent antiproliferative activities” throughout. Besides, the results for the IC50 in experiment [2], in experiment [3] and in experiment [5] were 1.68 µM, 3.6 µM and 0.061 µM, respectively.
As for `CCCNc1ccc2ncc(-c3ccc4[nH]ncc4c3)n2n1` [CHR-6494], in experiment [6], the “apoptosis (in words)” value is “apoptosis” and the “cell cycle arrest (in words)” value is given as “G2/M cell cycle arrest”.
In the case of `Oc1ccc(-c2nc3ccc4[nH]ncc4c3c3c2CCCC3)cn1` [Compound 12, 5-(8,9,10,11-Tetrahydro-3H-pyrazolo[4,3-a]phenanthridin-7-yl)pyridin-2-ol], the “haspin inhibition (in words)” value in experiment [1] was “poor haspin inhibitor”. In addition, the “antiproliferative activity (in words)” value in experiment [2], in experiment [3] and in experiment [4] was “moderate antiproliferative activity” in each case.
Regarding `Oc1ccc(-c2nc3ccc4[nH]ncc4c3c3c2CCCC3)cc1` [Compound 1, 4-(8,9,10,11-Tetrahydro-3H-pyrazolo[4,3-a]phenanthridin-7-yl)phenol], the “haspin inhibition (in words)” value in experiment [1] is reported as “good haspin inhibitor”. In addition, the “antiproliferative activity (in words)” value in experiment [2], in experiment [3] and in experiment [4] was “did not have good anticancer activities” throughout.
As for `Oc1ccc(-c2nc3ccc4[nH]ncc4c3c3c2CCCC3)c(F)c1` [HSD972, 3-Fluoro-4-(8,9,10,11-tetrahydro-3H-pyrazolo[4,3-a]phenanthridin-7-yl)phenol], the inhibition at 0.1 µM in experiment [1] was above 90%. Also, in experiment [2], the “antiproliferative activity (in words)” value is reported as “potent antiproliferative activities” and the IC50 stood at 2.7 µM. Moreover, in experiment [3], the “antiproliferative activity (in words)” value is “potent antiproliferative activities” and the IC50 turned out to be 4.8 µM. In experiment [7] (HCT116, 13.5 μM (5X IC50), 24 h, DMSO 16.2%), the “cells in G2 phase” value is on record as 59.3%. Further, the “effect on cell cycle distribution (in words)” value in experiment [7] (HCT116, 5X IC50, 24 h, compared to DMSO) was “population of cells in the G2/M phase was higher”. The “caspase 3/7 activity (in words)” value in experiment [8] is “increased the activity of caspase 3/7”.
Take `Oc1ccc(-c2nc3ccc4[nH]ncc4c3c3c2CCCC3)cc1F` [Compound 8, 2-Fluoro-4-(8,9,10,11-tetrahydro-3H-pyrazolo[4,3-a]phenanthridin-7-yl)phenol]: in experiment [1], the “haspin inhibition (in words)” value is on record as “less active against haspin than HSD972”.
Regarding `Oc1ccc(-c2nc3ccc4cn[nH]c4c3c3c2CCCC3)cc1` [Compound 20, 4-(8,9,10,11-Tetrahydro-1H-pyrazolo[3,4-a]phenanthridin-7-yl)phenol], the “haspin inhibition (in words)” value in experiment [1] is “not as active against haspin than compound 1”.
As to `Oc1ccc(-c2nc3ccc4[nH]ncc4c3c3c2CCCC3)c(F)c1F` [Compound 21, 2,3-Difluoro-4-(8,9,10,11-tetrahydro-3H-pyrazolo[4,3-a]phenanthridin-7-yl)phenol], the “haspin inhibition (in words)” value in experiment [1] was “decreased potency”.
For `Nc1ccc(-c2nc3ccc4[nH]ncc4c3c3c2CCCC3)cn1` [Compound 17, 5-(8,9,10,11-Tetrahydro-3H-pyrazolo[4,3-a]phenanthridin-7-yl)pyridin-2-amine], in experiment [1], the “haspin inhibition (in words)” value is on record as “did not affect haspin inhibition” and the inhibition at 0.1 µM is above 90%. Besides, in experiment [5], the IC50 is 0.045 µM.
